Six compounds from patent US20210179598A1, “SELECTIVE JAK2 INHIBITOR AND APPLICATION THEREOF” (EAST CHINA UNIVERSITY OF SCIENCE AND TECHNOLOGY, priority 2018, published 2021) can be followed below.

Series [1] concerns HEL (JAK2 V617F) cells. Put plainly: CCK-8 cell proliferation detection, HEL cells. It counts as cell-based. The conditions noted are these: Homo sapiens, Table 2, CCK-8, 72 hrs. The source says: (§1) WST-8 (chemical name: 2-(2-methoxy-4-nitrophenyl)-3-(4-nitrophenyl)-5-(2,4-disulfo benzene)-2H-tetrazolium monosodium), which is reduced to a highly water-soluble yellow formazan product (Formazan dye) by the dehydrogenase in cells under the action of the electron carrier dimethyl 1-methoxy-5-methylphenazinium sulfate (1-Methoxy PMS). The amount of the produced formazan is proportional to the number of living cells. Therefore, the survival rate of cells can be calculated indirectly by measuring the absorbance at 450 nm. The half inhibition rate of the compound on the proliferation of H3122, SET2, HEL cells can be determined by the CCK-8 method.
(§2) RPIM medium containing 10% FBS was used to culture cells (100 μL per well), and 3500 cells were inoculated into a 96-well plate, and placed in a 37° C., 5% CO2 incubator for 24 h, until 50%-70% of the cell confluence was achieved. Drugs with different concentration gradients were added respectively, and incubated for another 72 hrs. […] And finally the absorption value of each well was measured at 450 nm.
(§3) NOTE: HEL, SET-2, H3122 cells were purchased from ATCC (American type culture collection), Z′-LYTETM kinase assay platform was purchased from Invitrogen, HTRF KinEASETM-TK was purchased from Cisbio, and Cell Counting Kit-8 was purchased from Beyotime.

For series [2], the target named is JAK2 (Homo sapiens, UniProt O60674). Nature of the series: JAK2 kinase activity test at molecular level (Z'-LYTE FRET). It counts as biochemical. The method, then:
JAK2 can catalyze the transfer of a phosphate group of adenosine triphosphate (ATP) to a polypeptide substrate, and the polypeptide substrate is labeled with two fluorescent groups, coumarin and fluorescein. […] Therefore, the inhibition rates of different compounds can be calculated by measuring the ratio of enzyme-catalyzed substrate phosphorylation percentages.
10 μL reaction system, 2.5 μL test compound, 5 μL kinase/peptide substrate mixture and 2.5 μL ATP solution were added into a 384-well plate, shaken for 30 s, and incubated at room temperature for 1 hour. 5 μL of proteolytic enzyme and 15 μL of the reaction system were added and shaken for 30 s and incubated at room temperature for 1 h. 5 μL of stop reagent was added, and the reaction system with a total volume of 20 μL was shaken for 30 seconds. A microplate reader was used to detect the fluorescence signal. […] The inhibition rates of the compound at 7 concentration gradients were determined, and the IC50 value for each compound was calculated by fitting curve with Origin 8.0.
as §3

Series [3] concerns SET 2 (JAK2 V617F) cells. Nature of the series: CCK-8 cell proliferation detection, SET2 cells. It counts as cell-based. The conditions noted are these: Homo sapiens, SET-2; Table 2; CCK-8, 72 hrs.
Text: as §1, §2, §3

For series [4], the system named is H3122 cells. Put plainly: CCK-8 cell proliferation detection, H3122 cells. It counts as cell-based. Particulars: Homo sapiens, NCI-H3122; Table 2; CCK-8, 72 hrs.
Text: as §1, §2, §3

In series [5] the target is ALK (Homo sapiens, UniProt Q9UM73). Put plainly: ALK kinase IC50 test (HTRF). It counts as biochemical. The conditions noted are these: Table 2.
Text: According to HTRF method, the peptide substrate was labeled with a biotin, which can specifically bind to XL665-labeled streptavidin. When the kinase adds a phosphate group to the polypeptide substrate in the first step, its Eu-labeled specific phosphorylation antibody can recognize and bind to it. In this way, in the second step of detection, a complex of XL665-labeled streptavidin, phosphorylated peptide substrate and Eu-labeled phosphorylation antibody can be formed. Since the distance between XL665 and Eu is short, FRET can be formed. On the other hand, Eu has a relatively long fluorescence half-life and can be applied to time-resolved fluorescence detection.
10 μL of reaction system, 4 μL test compound, 2 μL kinase, 2 μL biotin-labeled substrate and 2 μL ATP, was added into a 384-well plate, shaken for 30 s, and incubated at room temperature for 1 hour. 5 μL of Eu-labeled phosphorylation site-specific antibody and 5 μL of XL665-labeled streptavidin were added. The reaction system was shaken for 30 s, and incubated at room temperature for 1 hour. A microplate reader was used to detect the fluorescence signal. The inhibition rates of the compounds under 8 concentration gradients were determined, and the IC50 value of each compound was calculated by fitting curve with Origin 8.0. […] Each experiment was performed in triplicate.
as §3

Setting [6] is: Table 1, read-out: JAK2 kinase activity IC50.

Read-outs that look alike come from different tables or passages of the source.

ALK, sequence (Q9UM73 19-1620, species assumed): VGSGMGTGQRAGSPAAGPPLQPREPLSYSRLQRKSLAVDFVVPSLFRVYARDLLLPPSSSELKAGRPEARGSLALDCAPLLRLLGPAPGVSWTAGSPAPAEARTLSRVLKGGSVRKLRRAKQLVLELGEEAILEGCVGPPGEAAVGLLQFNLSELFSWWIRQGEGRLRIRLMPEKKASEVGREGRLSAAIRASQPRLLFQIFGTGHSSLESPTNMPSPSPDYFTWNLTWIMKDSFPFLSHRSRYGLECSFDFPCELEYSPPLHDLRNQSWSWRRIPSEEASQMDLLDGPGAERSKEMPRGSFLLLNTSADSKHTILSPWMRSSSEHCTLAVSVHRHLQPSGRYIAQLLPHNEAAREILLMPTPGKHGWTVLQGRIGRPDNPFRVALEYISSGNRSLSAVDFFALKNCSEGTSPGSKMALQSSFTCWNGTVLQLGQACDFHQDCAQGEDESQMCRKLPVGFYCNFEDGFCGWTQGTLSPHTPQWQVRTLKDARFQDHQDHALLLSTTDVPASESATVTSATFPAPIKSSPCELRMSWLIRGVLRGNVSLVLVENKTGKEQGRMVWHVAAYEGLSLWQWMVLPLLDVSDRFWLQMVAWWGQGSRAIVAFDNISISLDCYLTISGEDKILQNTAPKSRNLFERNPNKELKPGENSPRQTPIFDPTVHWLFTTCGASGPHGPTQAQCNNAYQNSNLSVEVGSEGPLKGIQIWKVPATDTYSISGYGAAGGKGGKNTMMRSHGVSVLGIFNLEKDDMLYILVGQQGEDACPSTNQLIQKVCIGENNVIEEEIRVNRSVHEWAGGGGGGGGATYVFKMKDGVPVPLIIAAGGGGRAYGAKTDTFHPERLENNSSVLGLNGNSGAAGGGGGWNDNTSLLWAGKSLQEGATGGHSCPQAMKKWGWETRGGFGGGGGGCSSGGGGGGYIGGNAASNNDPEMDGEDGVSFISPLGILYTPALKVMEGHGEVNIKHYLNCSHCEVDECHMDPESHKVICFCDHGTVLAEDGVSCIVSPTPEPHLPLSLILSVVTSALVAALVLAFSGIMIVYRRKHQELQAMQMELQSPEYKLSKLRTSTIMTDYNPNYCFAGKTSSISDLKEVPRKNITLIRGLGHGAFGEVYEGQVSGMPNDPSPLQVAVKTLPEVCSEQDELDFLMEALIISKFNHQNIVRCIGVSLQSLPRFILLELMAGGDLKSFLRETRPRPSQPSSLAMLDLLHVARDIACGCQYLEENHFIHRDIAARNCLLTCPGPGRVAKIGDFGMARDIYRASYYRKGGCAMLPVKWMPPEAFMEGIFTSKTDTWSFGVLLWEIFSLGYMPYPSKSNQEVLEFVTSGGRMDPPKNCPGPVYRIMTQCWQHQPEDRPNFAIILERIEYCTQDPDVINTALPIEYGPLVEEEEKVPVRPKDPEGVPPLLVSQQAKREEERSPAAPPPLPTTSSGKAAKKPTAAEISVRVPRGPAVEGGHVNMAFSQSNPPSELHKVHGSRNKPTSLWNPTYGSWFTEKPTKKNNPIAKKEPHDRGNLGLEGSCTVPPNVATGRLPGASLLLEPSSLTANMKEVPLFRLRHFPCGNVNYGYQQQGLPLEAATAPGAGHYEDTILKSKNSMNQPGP
JAK2, sequence (O60674 whole entry): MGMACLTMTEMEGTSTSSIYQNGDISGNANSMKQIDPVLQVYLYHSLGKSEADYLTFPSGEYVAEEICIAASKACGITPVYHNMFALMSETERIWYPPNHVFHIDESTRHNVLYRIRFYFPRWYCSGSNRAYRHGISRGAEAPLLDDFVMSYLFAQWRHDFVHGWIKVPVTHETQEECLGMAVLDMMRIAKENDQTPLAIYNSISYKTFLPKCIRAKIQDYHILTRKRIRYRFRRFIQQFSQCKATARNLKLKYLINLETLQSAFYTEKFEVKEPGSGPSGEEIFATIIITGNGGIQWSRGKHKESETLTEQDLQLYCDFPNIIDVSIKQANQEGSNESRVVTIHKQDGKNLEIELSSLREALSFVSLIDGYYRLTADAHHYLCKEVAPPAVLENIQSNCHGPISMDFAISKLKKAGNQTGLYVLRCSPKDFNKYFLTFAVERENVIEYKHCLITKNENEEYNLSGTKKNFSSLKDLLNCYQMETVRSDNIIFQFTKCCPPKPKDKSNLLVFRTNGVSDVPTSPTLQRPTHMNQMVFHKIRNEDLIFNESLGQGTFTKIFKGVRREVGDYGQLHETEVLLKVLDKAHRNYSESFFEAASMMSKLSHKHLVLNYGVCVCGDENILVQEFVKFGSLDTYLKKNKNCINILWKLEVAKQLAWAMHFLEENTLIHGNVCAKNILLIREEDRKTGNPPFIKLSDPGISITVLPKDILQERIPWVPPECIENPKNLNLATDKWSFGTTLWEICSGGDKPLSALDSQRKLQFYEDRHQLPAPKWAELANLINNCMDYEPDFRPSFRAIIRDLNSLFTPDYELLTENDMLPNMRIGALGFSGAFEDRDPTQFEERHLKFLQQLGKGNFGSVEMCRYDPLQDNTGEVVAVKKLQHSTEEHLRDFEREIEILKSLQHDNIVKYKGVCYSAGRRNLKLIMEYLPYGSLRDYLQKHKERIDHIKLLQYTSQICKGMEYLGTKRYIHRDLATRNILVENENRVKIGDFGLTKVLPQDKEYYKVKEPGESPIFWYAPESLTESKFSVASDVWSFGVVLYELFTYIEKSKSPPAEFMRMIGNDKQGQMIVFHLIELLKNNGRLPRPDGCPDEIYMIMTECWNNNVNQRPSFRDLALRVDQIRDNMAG

Consider `CC(Oc1cc(-c2cn[nH]c2)cnc1N)c1cc(F)ccc1Cl` (centres unmarked) [WWQ-1093-81, 3-(1-(2-chloro-5-fluorophenyl)ethoxy)-2-amino-5-pyrazolepyridine], for which the melting point lay within 183.8 to 184.6 °C. In addition, in series [1], the IC50 was determined as 4.7 µM. The IC50 in series [2] (setting [6]) was 0.016 ± 0.0001 µM. The IC50 in series [2] (Table 2, read-out: JAK2 IC50) is 0.016 ± 0.0001 µM. In series [3], 5.55 µM corresponded to half-maximal inhibition (IC50). This compound also had a half-inhibitory concentration (IC50) in series [4] of 2.55 ± 0.16 µM. The IC50 in series [5] amounted to 0.334 µM.
`CC(Oc1cc(-c2ccccc2)cnc1N)c1c(Cl)ccc(F)c1Cl` (centres unmarked) [WWQ-1093-83] came in with a melting point of 160.4 to 161.4 °C. The compound further had an IC50 in series [1] of 11.3 µM. In addition, the IC50 in series [2] (Table 2, read-out: JAK2 IC50) is greater than 10 µM. This compound also returned an IC50 in series [3] of 11.6 µM. Moreover, the IC50 in series [4] worked out at 6.06 ± 0.081 µM. The IC50 in series [5] is greater than 10 µM.
`CC(Oc1cc(-c2ccc(N3CCNCC3)cc2)cnc1N)c1cc(F)ccc1Cl` (centres unmarked) [WWQ-1093-85] came in with a melting point of 191.1 to 193.7 °C. This compound registered an IC50 in series [1] of 35.8 µM. Moreover, in series [2] (setting [6]), the 50% inhibitory concentration (IC50) was 0.037 ± 0.003 µM. Besides, the IC50 in series [2] (Table 2, read-out: JAK2 IC50) is 0.037 ± 0.003 µM. Moreover, in series [3], it took 8.26 µM to reach half-maximal inhibition (IC50). The compound further had an IC50 in series [4] of 1.14 ± 0.012 µM. Also, in series [5], the midpoint of inhibition, the IC50, lay at 0.498 µM.
As to `CC(Oc1cc(-c2ccc(C3CCNCC3)cc2)cnc1N)c1cc(F)ccc1Cl` (centres unmarked) [WWQ-1093-87], the melting point was 189.8 to 191 °C. The compound further had an IC50 in series [1] of 35.4 µM. In addition, in series [2] (setting [6]), the IC50 came out at 0.048 ± 0.008 µM. Moreover, the IC50 in series [2] (Table 2, read-out: JAK2 IC50) came to 0.048 ± 0.008 µM. The IC50 in series [3] was found to be 9.7 µM. This compound also yielded an IC50 in series [4] greater than 10 µM. This compound also came in with an IC50 in series [5] of 0.545 µM.
As to `CC(Oc1cc(-c2cccc(N3CCNCC3)c2)cnc1N)c1cc(F)ccc1Cl` (centres unmarked) [WWQ-1093-89], the melting point was 190.8 to 191.6 °C. The compound also gave an IC50 in series [1] of 8.43 µM. The concentration for half-maximal inhibition (IC50) in series [2] (setting [6]) is 0.027 ± 0.002 µM. Moreover, the IC50 in series [2] (Table 2, read-out: JAK2 IC50) is 0.027 ± 0.002 µM. Further, in series [3], the IC50 worked out at 2.26 µM. This compound yielded a half-maximal inhibitory concentration (IC50) in series [4] of less than 0.5 µM. For the same compound, the IC50 in series [5] is 0.334 µM.
On to `CC(Oc1cc(-c2cccc(C3CCNCC3)c2)cnc1N)c1cc(F)ccc1Cl` (centres unmarked) [WWQ-1093-91], for which the melting point lay within 192.1 to 193.4 °C. This compound returned an IC50 in series [1] of 8.77 µM. Moreover, in series [2] (setting [6]), the IC50 amounted to 0.035 ± 0.001 µM. Further, the IC50 in series [2] (Table 2, read-out: JAK2 IC50) came out at 0.035 ± 0.001 µM. In addition, half-maximal inhibition in series [3] (IC50) required 2.36 µM. In series [4], this compound returned an IC50 of 0.956 µM. In series [5], this compound yielded a half-maximal inhibitory concentration (IC50) of 1.25 µM.
